According to patent US6348214B1, “Materials and methods for making improved liposome compositions” (The Board of Trustees of the Illinois, priority 1996, dated 2002):
Ends that are not written are not given here.

How the values were obtained:
[1] = system: second-order arterioles in the cheek pouch of hamsters with spontaneous hypertension; test: Arteriolar diameter in hamster cheek pouch microcirculation, hamsters with spontaneous hypertension; assay type: in vivo
Procedure: (§1) Adult male hamsters with spontaneous hypertension (n=21) and age- and genetically-matched normotensive controls (n=20) were purchased from the Canadian Hybrid Farns, Halls Harbor, NS, Canada. In preparation, the animals were anesthetized interperitoneally with sodium pentobarbital (6 mg/100 g body weight) and a tracheostomy was performed to facilitate spontaneous breathing. The left femoral vein was cannulated to inject supplemental anesthesia (2 to 4 mg per 100 g body weight per hour) during the experiment. A catheter was inserted into the left femoral artery to record systemic arterial pressure and heart rate. Body temperature was monitored to maintain a constant 37-38° C. throughout the experiment using a heating pad.
(§2) In order to visualize microcirculation of the cheek pouch, previously described methods were employed [Gao, et al., Life Sci. 64: PL274-PL252 (1994); Mayhan and Joyner, Microvasc. Res. 28: 159-179 (1984); Mayban and Rubinstein, Biochem. Biophys. Res. Commun. 184:1372-1377 (1992); Raud, Acta Physiol. Scand. Suppl. 578:1-58 (1989); Rubinstein and Mayban, J. Lab. Clin. Med. 25:313-318 (1995); Rubinstein, et al., Am. J. Physiol. 261 (Heart Circ. Physiol. 30):111913-111918 (1991); and Suzuki, et al., Life Sci. 57:1451-1457 (1995)]. Briefly, the left cheek pouch was spread over a small plastic baseplate, and an incision was made in the outer skin to expose, the cheek pouch membrane. […]
(§3) Change in arteriolar diameter was determined as follows. […] The inner wall diameter of secondorder arterioles in the cheek pouch was measured from the video display of the microscope image using a videomicrometer (VIA-100, Boeckeler Instruments, Tucson, Ariz.). […]
VIP alone or encapsulated in liposomes was suffused for 7 minutes at a concentration of VIP of either 0.05 or 0.1 nmol peptide, and more than 30 minutes elapsed between subsequent applications of the peptide. Changes in arteriolar diameter before, during, and after topical application of VIP were determined as outlined above. […]

[2] = system: second-order arterioles in the cheek pouch of normotensive hamsters; test: Arteriolar diameter in hamster cheek pouch microcirculation, normotensive hamsters; assay type: in vivo; settings: Example 1; 0.05 or 0.1 nmol VIP suffused for 7 minutes
Procedure: According to another experiment, normotensive hamsters were suffused onto the cheek pouch for 7 minutes with 0.1 nmol VIP-PEG-liposome composition which produced a significant increase in mean arterial diameter in situ. The results of this experiment are shown in FIG. 3 with data and significance indicated for results in FIGS. 2A and 2B above. […] Arterial diameter returned to baseline 9 minutes after suffusion was discontinued.
as §1, §2, §3

[3] = system: hamsters with spontaneous hypertension; test: Mean arterial pressure after intravenous administration, hamsters with spontaneous hypertension; assay type: in vivo, hamster
From the text: The provisional application further disclosed that a bolus intravenous injection of 1.0 nmol VIP-PEG-liposome compound acted to decrease mean arterial pressure (MAP) in hamsters with spontaneous hypertension. The results are reproduced herein as FIGS. 2A and 2B; FIG. 2A showing the actual decrease on arterial pressure and FIG. 2B showing the percent change. Data are mean values ± one standard error of the mean; an asterisk indicates statistically significant values compared to control with p value less than 0.05.
In examining the duration and efficacy of VIP in the two liposome preparations on mean arterial pressure, the following procedure was carried out. Adult mate hamsters with spontaneous hypertension (n=12) were obtained from the Canadian Hybrid Farms (Hall Harbour, Nova Scotia, Canada). Approximately 500 μl each of three test preparations, liposomes prepared by the second method above, VIP in aqueous solution, and liposomes without VIP, were injected administered over the course of 1 minute in the femoral vein. Continuous anesthesia of the animals limited the duration of the experiment to 6 hours.
Adult male golden Syrian hypertensive hamsters were prepared for intravital microscopy, cheek pouch microcirculation observed and measured, and mean arterial pressure determined, each technique as described above. […]

neutrophil = test: Neutrophil chemotaxis in two chamber apparatus (response to fmlp); assay type: cell-based; settings: FIG. 5
From the text: Finally, as another experiment the effect of VIP-PEG-liposomes on neutrophil chemotaxis was examined using a two chamber apparatus routinely employed for in vitro analysis of chemotaxis. Neutrophil migration from the upper chamber into the lower chamber in response to formyl-methionyl-leucyl-phenylalanyl (fmlp) peptide in the lower chamber was initially established at a baseline control.

[4] = system: second-order arterioles in the cheek pouch of normotensive hamsters; settings: 0.1 nmol VIP dissolved in saline; Suzuki et al. 1995; cited from earlier work

Compound | vasorelaxation, hypertensive versus normotensive hamsters ([1]; Example 1, endothelium independent vasodilator control in the cheek pouch) | effect on arteriolar diameter [2] | time after suffusion was stopped until return to baseline / persistence of vasodilation [2] | time to maximal response from start of suffusion [2] | effect on arteriolar diameter ([1]; Example 1, 0.05 or 0.1 nmol VIP suffused for 7 minutes) | effect on arteriolar diameter ([1]; Example 5, hypertensive hamsters, suffusion for 7 minutes) | effect on mean arterial pressure ([3]; Example 3, injected in the femoral vein over 1 minute) | effect on mean arterial pressure ([3]; Example 5, hypertensive hamsters) | neutrophil migration against fmlp in the lower chamber (neutrophil; test substance added with neutrophils in the upper chamber) | neutrophil migration against test substance in the lower chamber (neutrophil; test substance in lower chamber, no fmlp) | increase in arteriolar diameter [4]
O=[N+]([O-])OCC(CO[N+](=O)[O-])O[N+](=O)[O-] [nitroglycerin] | vasorelaxation of similar magnitude in both groups |  |  |  |  |  |  |  |  |  | 
vasoactive intestinal peptide (HSDAVFTDNYTRLRKQMAVKKYLNSILN; ends and bridges not checked; UniProt P01282 125-152, looked up) [VIP] |  | significant vasodilation | ≤ 1 min | ≤ 4 min | no significant effects on arteriolar diameter | no effects | No significant effect on mean arterial pressure | no effect | significant migration was observed | negligible | approximately 10%
